Test results taken from US20010055590A1, “Method for enhancing myoblast migration and invasion in the context of gene therapy” (priority 1999, published 2001).

Assays:
Format in all cases: cell-based
human myoblasts = assay: In vitro human myoblast migration assay; conditions: 12 hour time point
Procedure: Mouse myoblasts were previously isolated from hind limb muscles of 4-6 week old severe combined immunodeficient (SCID) mice and clonally purified from contaminating fibroblasts (Yao et al. “Primary myoblast-mediated gene: transfer: persistent expression of human factor IX in mice” Gene Therapy 1:99-107, 1994). Myoblasts (approximately 1×10^6 cells) were plated on 6 cm tissue culture plates coated with 0.5% gelatin (Sigma, St. Louis, Mo.) and grown in growth medium consisting of Dulbecco's Modified Eagle Medium (DMEM) (Gibco BRL, Gaithersburg Md.) supplemented with 20% fetal bovine serum (FBS; Gibco) and 0.5% chick embryo extract (CEE; Gibco). All animal studies were carried out following the institutional guidelines for ethical animal use. Human myoblasts were isolated using trypsin digestion from abdominal wall or chest wall muscle biopsies, and surgery. Written consent was obtained from all patients prior to biopsy isolation as approved by the University Hospital's Institutional Regulation Board on the use of human subjects. Cells were preplated on uncoated plates for 1 hour to separate muscle fibroblasts. Approximately 95% of the cells were desmin-positive following immunohistochemical staining of representative culture samples, and were capable of differentiation into myotubes, indicating high purity of the myoblast preparation. All experiments were done with myoblasts of passage 7 or lower. Myoblast migration and invasion were examined using a commercially available in vitro cell migration and invasion assay kit (Biocoat, Becton Dickinson, Franklin Lakes, N.J.) as described by Albini et al. (A rapid in vitro assay for quantitating the invasive potential of tumor cells Cancer Res 47:3239-3245, 1987). Myoblasts were grown to approximately 70% confluence, rinsed three times in serum-free DMEM, followed by incubation for 3 hours in 0.2% bovine serum albumin (BSA) in DMEM to eliminate the effects of serum. Cells were then trypsinized and collected by centrifugation. Cells were resuspended in serum-free DMEM at a density of 1×10^5 cells/ml, and 0.5 ml aliquots of cell suspension were added to the top chamber. […] Fibronectin subfragments of 45 KDa (Sigma), 120 kDa (Gibco), 63 kDa (Retronectin, Takara) and 70 KDa (Sigma) were used alone or in combination. The growth factor concentrations used were those which could produce maximal effects as examined in the present studies by extending from values reported by Bischoff (“Chemotaxis of skeletal muscle satellite cells” Devel. Dynamics 208:505-515, 1997). For migration studies, the upper chamber membrane was coated with 0.1% gelatin and cells were allowed to migrate for 8-12 hours, while for invasion studies, the upper membrane was coated with 5 μl of Matrigel® diluted to 5 mg/ml in sterile phosphate buffered saline (PBS) and cells were allowed to invade for 24 hours. The top side of the insert membrane was scrubbed free of cells using a cotton swab and the bottom side was stained using the Leukostat-I system (Fisher Diagnostics, Pittsburgh, Pa.). The number of cells per field was counted in 10 randomly selected fields and averaged for each condition. To evaluate the effects of inactivation or activation of MMPs, aliquots (0.05 units in 50 μl PBS) of purified human plasmin (Sigma) or 50 mM N-acetyl cysteine (NAC; Sigma) were added with the cells to the top chamber of the migration assay and growth factor was added to the bottom. […] The effects of growth factors on human myoblast migration in vitro (12 hour time point) were somewhat different from those observed with mouse myoblasts. […] The greatly elevated level of migration of human myoblasts was due in part to the extremely low migration in the BSA control (basal level) of human cells compared to mouse cells. The largest effects on human myoblast migration were produced by fibronectin (100-fold), PDGF (about 62-fold), TGF-β (about 54-fold) and HGF (46-fold) over the control level, while bFGF produced only a 37-fold stimulation (FIG. 7a). […]

MMP-2 = assay: Gelatin zymography of mouse myoblast culture medium, MMP-2; conditions: mouse myoblasts treated 24 hours; densitometry normalized to DMEM control
Procedure: Briefly, myoblasts were grown in 6 cm tissue culture plates to approximately 70% confluence, then rinsed three times with serumfree DMEM and incubated for 3 hours in DMEM containing 0.2% BSA to eliminate the effects of serum. Growth factors were added and cells were incubated for 24 hours. Culture medium was then collected, centrifuged to pellet detached cells, and concentrated ten-to twenty-fold using the Centricon-10 (Amicon, Beverly, Mass.) system. The protein concentration of the supernatants was determined using the Bio-Rad protein microassay system with BSA used as the standard. Samples were stored at −70° C. until use. For gelatin zymography, aliquots (10 μg as the total protein per sample) were electrophoresed at constant voltage on a 10% polyacrylamide gel containing 2 mg/ml gelatin. The gel was rinsed three times for 15 min in 2.5% Triton-X 100 to remove SDS and renature the proteins, then incubated in MMP activation buffer (0.05 M Tris-HCl, pH 7.5 with 5 mM CaCl2) for 24 hours at 37° C. with constant shaking. Gels were stained overnight in 0.5% Coomassie blue R-250, and destained for 1 hour in 40% methanol: 10% acetic acid. Proteinase activity was quantified by densitometric scanning of bands using a Bio-Rad Gel Doc 1000 video camera imaging system (Bio Rad, Hercules, Calif.). […] Values are arbitrary densitometric units, which are normalized to DMEM control for each experiment and shown as values ±SEM representing a minimum of 3 experiments per condition. […] Mouse myoblasts were treated for 24 hours with either DMEM alone, fibronectin (50 μg/ml), or individual fragments (37.5 μg/ml) of 45, 120, 63 (Retronectin), 75 kDa and their combinations, 45 kDa/120 kDa and 120 kDa/63 kDa.

mouse myoblasts = assay: In vitro mouse myoblast migration assay (gelatin-coated membrane); conditions: 12 hours; for stimulation of mouse myoblast migration over the DMEM control: 25 ng/ml bFGF, 50 μg/ml fibronectin, 10 ng/ml HGF, 2 ng/ml TGF-β1; for effect on mouse myoblast migration: stimulant in bottom chamber
Procedure: Mouse myoblasts were previously isolated from hind limb muscles of 4-6 week old severe combined immunodeficient (SCID) mice and clonally purified from contaminating fibroblasts (Yao et al. “Primary myoblast-mediated gene: transfer: persistent expression of human factor IX in mice” Gene Therapy 1:99-107, 1994). Myoblasts (approximately 1×10^6 cells) were plated on 6 cm tissue culture plates coated with 0.5% gelatin (Sigma, St. Louis, Mo.) and grown in growth medium consisting of Dulbecco's Modified Eagle Medium (DMEM) (Gibco BRL, Gaithersburg Md.) supplemented with 20% fetal bovine serum (FBS; Gibco) and 0.5% chick embryo extract (CEE; Gibco). All animal studies were carried out following the institutional guidelines for ethical animal use. Human myoblasts were isolated using trypsin digestion from abdominal wall or chest wall muscle biopsies, and surgery. Written consent was obtained from all patients prior to biopsy isolation as approved by the University Hospital's Institutional Regulation Board on the use of human subjects. Cells were preplated on uncoated plates for 1 hour to separate muscle fibroblasts. […] All experiments were done with myoblasts of passage 7 or lower. Myoblast migration and invasion were examined using a commercially available in vitro cell migration and invasion assay kit (Biocoat, Becton Dickinson, Franklin Lakes, N.J.) as described by Albini et al. (A rapid in vitro assay for quantitating the invasive potential of tumor cells Cancer Res 47:3239-3245, 1987). Myoblasts were grown to approximately 70% confluence, rinsed three times in serum-free DMEM, followed by incubation for 3 hours in 0.2% bovine serum albumin (BSA) in DMEM to eliminate the effects of serum. Cells were then trypsinized and collected by centrifugation. Cells were resuspended in serum-free DMEM at a density of 1×10^5 cells/ml, and 0.5 ml aliquots of cell suspension were added to the top chamber. […] Fibronectin subfragments of 45 KDa (Sigma), 120 kDa (Gibco), 63 kDa (Retronectin, Takara) and 70 KDa (Sigma) were used alone or in combination. […] For migration studies, the upper chamber membrane was coated with 0.1% gelatin and cells were allowed to migrate for 8-12 hours, while for invasion studies, the upper membrane was coated with 5 μl of Matrigel® diluted to 5 mg/ml in sterile phosphate buffered saline (PBS) and cells were allowed to invade for 24 hours. The top side of the insert membrane was scrubbed free of cells using a cotton swab and the bottom side was stained using the Leukostat-I system (Fisher Diagnostics, Pittsburgh, Pa.). The number of cells per field was counted in 10 randomly selected fields and averaged for each condition. To evaluate the effects of inactivation or activation of MMPs, aliquots (0.05 units in 50 μl PBS) of purified human plasmin (Sigma) or 50 mM N-acetyl cysteine (NAC; Sigma) were added with the cells to the top chamber of the migration assay and growth factor was added to the bottom. […] Myoblasts (5×10^4 cells/well) were stimulated with various growth factors and fibronectin, and their ability to migrate or invade through a Matrigel® barrier (panel a, mouse myoblast migration at 12 hours; panel b, mouse myoblast invasion at 24 hours). […] Bars represent mean ±SEM from a minimum of 3 separate experiments. […] Further studies were done to elucidate the role of MMPs in cytokine-mediated mouse myoblast migration.

Row | Molecule | stimulation of human myoblast migration over the BSA control level (human myoblasts) | increase of total MMP-2 expression (MMP-2) | stimulation of mouse myoblast migration over the DMEM control (mouse myoblasts) | effect on mouse myoblast migration (mouse myoblasts)
1 | purified human transforrning growth factor-β1 [TGF-β1] | about 54 fold | 36% | 5 fold | stimulated migration of mouse myoblasts to various degrees
2 | recombinant hepatocyte growth factor [HGF] | 46 fold | – | 8 fold | stimulated migration of mouse myoblasts to various degrees
3 | recombinant human insulin-like growth factor-I [IGF-I] | – | 69% | – | stimulated migration of mouse myoblasts to various degrees
4 | recombinant human platelet-derived growth factor-BB (protein, UniProt P01127 82-190, looked up, Platelet-derived growth factor subunit B, recombinant human platelet-derived growth factor-BB) Platelet-derived growth …: SLGSLTIAEPAMIAECKTRTEVFEISRRLIDRTNANFLVWPPCVEVQRCSGCCNNRNVQCRPTQVQLRPVQVRKIEIVRKKPIFKKATVTLEDHLACKCETVAAARPVT | about 62 fold | 35% | – | stimulated migration of mouse myoblasts to various degrees
